Reference: US4757151A, “2-substituted-[2-substituted-amino]-N-arylalkyl-3-[indol-3-yl]” (Warner-Lambert Company, priority 1986, dated 1988)

Tests used:
[1] = percent repression of food intake (appetite suppression) in laboratory rats trained to a six hour feeding period; type: in vivo, adult male Wistar rats
Excerpt: In this screen, adult male Wistar rats weighing between 250-400 g were housed individually and trained to consume their daily intake of food within a six hour period. Food was then withdrawn for the remaining eighteen hour period of each day. Drinking water was available at all times, and the animals were maintained on a twelve hour light/twelve hour dark cycle. This training regimen was maintained for a seven-day period. Powdered, rather than pelletized, food was used to minimize spillage and to facilitate measurement of food intake.
On each test day, a group of twelve rats was used, six receiving a single dose of test compound and six serving as a control group. Immediately after dosing, the rats were allowed access to food. Food intake was then monitored over the next six-hour period. The food hoppers were weighed at intervals of 30 minutes, and at 1, 2, 3, 4, 5, and 6 hours after administration of the test compound. The percent repression of food intake of laboratory rats under these conditions for the prior art octapeptide, CCK26-33, and for several compounds of the present invention appear in Table 2.

CCK receptor = biological target: T1, CCK receptor (Mus musculus, UniProt P56481); test: displacement of tritiated pentagastrin binding to mouse cerebral cortical membranes (CCK receptor binding screening test); set-up: species or system male CFLP mice; settings: tritiated pentagastrin (2 nM) displacement, Cheng-Prusoff
T1 construct: the cerebral cortices from male CFLP mice weighing between 30-40 g were dissected on ice, weighed and homogenized; from tissue; host or cells: cerebral cortex membranes of male CFLP mice
T1 sequence (P56481 1-453): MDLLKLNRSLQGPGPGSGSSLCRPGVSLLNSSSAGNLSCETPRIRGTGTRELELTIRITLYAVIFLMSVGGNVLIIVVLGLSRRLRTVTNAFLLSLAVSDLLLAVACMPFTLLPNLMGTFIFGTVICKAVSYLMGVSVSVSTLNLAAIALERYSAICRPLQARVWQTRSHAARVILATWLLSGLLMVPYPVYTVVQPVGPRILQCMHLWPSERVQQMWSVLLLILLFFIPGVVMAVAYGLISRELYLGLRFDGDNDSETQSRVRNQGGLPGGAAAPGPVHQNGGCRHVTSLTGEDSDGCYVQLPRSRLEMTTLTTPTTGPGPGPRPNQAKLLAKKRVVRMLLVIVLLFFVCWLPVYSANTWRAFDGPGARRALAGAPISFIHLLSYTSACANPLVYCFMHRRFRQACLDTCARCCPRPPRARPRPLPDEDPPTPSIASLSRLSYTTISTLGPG
Procedure: The biological activities of compounds of this invention were evaluated employing an initial screening test which rapidly and accurately measured the binding of the tested compound to known CCK receptor cites. […] (See Hays et al., Neuropeptides, 1: 53-62 (1980); and Sauter et al., Science, 208: 1155-1156 (1980).
In the screening test, the cerebral cortices from male CFLP mice weighing between 30-40 g were dissected on ice, weighed and homogenized in 10 volumes of 50 mM Tris-HCl buffer (pH 7.4 at 0°-4° C.). The resulting suspension was centrifuged, the supernate was discarded, and the pellet was washed by resuspension in Tris-HCl buffer followed by recentrifugation.
The final pellet was resuspended in 10 volumes of 10 mM Hepes buffer (pH 7.2 at 23° C.) containing 130 mM NaCl, 4.7 mM KCl, 1 mM EDTA, 5 mg/ml bovine albumin, and bacitracin (0.25 mg/ml). […]
Following incubation, radioactivity bound to membranes was separated from that free in solution by rapid filtration through Whatman GF/B filters and washed three times with 4-ml portions of ice-cold Tris-HCl buffer. Filters from samples incubated with tritiated pentagastrin were placed in polyethylene vials with 8 ml of scintillation cocktail, and the radioactivity was estimated by scintillation spectrometry (efficiency 47-52%). […]
Saturation curves for specific tritiated pentagastrin binding to mouse cortical membranes were analyzed by statisitcal methods to provide estimates for the maximum number of binding sites (Bmax) and the equilibrium dissociation constant (Kd).
In the displacement experiements, inhibition curves were analyzed by logit-log plots to provide estimates of the IC50 and nH (apparent Hill coefficient) values. […]
The inhibition constant, Ki, of the test compound was then calculated according to the Cheng-Prusoff equation: [formula] where [L] is the molar concentration of radiolabel and Kd is the equilibrium dissociation constant.

Compound	Ki (CCK receptor) [µM]	Percent Repression of Food Intake After 0.5 Hours ([1]; I.P. 300 mg/kg) [%]	Percent Repression of Food Intake After 1.0 Hours ([1]; I.P. 300 mg/kg) [%]	Percent Repression of Food Intake After 3.0 Hours ([1]; I.P. 300 mg/kg) [%]	Percent Repression of Food Intake After 6.0 Hours ([1]; I.P. 300 mg/kg) [%]	Percent Repression of Food Intake After 0.5 Hours ([1]; I.P. 100 mg/kg) [%]	Percent Repression of Food Intake After 1.0 Hours ([1]; I.P. 100 mg/kg) [%]	Percent Repression of Food Intake After 3.0 Hours ([1]; I.P. 100 mg/kg) [%]	Percent Repression of Food Intake After 6.0 Hours ([1]; I.P. 100 mg/kg) [%]	other results
CC(Cc1c[nH]c2ccccc12)(NC(=O)OC(C)(C)C(Cl)(Cl)Cl)C(=O)NCCc1ccccn1 (racemic) [Example 19, (±)-[1-(1H-Indol-3-ylmethyl)-1-methyl-2-oxo-2-[[2-(2-pyridinyl)ethyl]amino]ethyl]carbamic acid, 2,2,2-trichloro-1,1-dimethylethyl ester]	–	35	49	60	55	–	–	–	–	Percent Repression of Food Intake After 0.5 Hours ([1]; P.O. 300 mg/kg): 78%; Percent Repression of Food Intake After 1.0 Hours ([1]; P.O. 300 mg/kg): 68%; Percent Repression of Food Intake After 3.0 Hours ([1]; P.O. 300 mg/kg): 52%; Percent Repression of Food Intake After 6.0 Hours ([1]; P.O. 300 mg/kg): 52%
CC(C)(C)OC(=O)N[C@@](C)(Cc1c[nH]c2ccccc12)C(=O)N[C@@H](Cc1ccccc1)C(N)=O (single isomer, unassigned) [Example 2, N-[(1,1-Dimethylethoxy)carbonyl]-α-methyltryptophyl-L-phenylalaninamide]	6	–	–	–	–	66	54	1	0	Percent Repression of Food Intake After 0.5 Hours ([1]; I.P. 4 mg/kg): 24%; Percent Repression of Food Intake After 1.0 Hours ([1]; I.P. 4 mg/kg): 13%; Percent Repression of Food Intake After 3.0 Hours ([1]; I.P. 4 mg/kg): 19%; Percent Repression of Food Intake After 6.0 Hours ([1]; I.P. 4 mg/kg): 14%
CCK26-33: prior art octapeptide, carboxyl-terminus fragment of cholecystokinin [reference compound]	–	–	–	–	–	–	–	–	–	Percent Repression of Food Intake After 0.5 Hours ([1]; I.P. 5 mg/kg): 50%; Percent Repression of Food Intake After 1.0 Hours ([1]; I.P. 5 mg/kg): 40%; Percent Repression of Food Intake After 3.0 Hours ([1]; I.P. 5 mg/kg): 3%; Percent Repression of Food Intake After 6.0 Hours ([1]; I.P. 5 mg/kg): 12%

The next lines start with results.

Ki (CCK receptor) [µM]	Compound	Percent Repression of Food Intake After 0.5 Hours ([1]; I.P. 300 mg/kg) [%]	Percent Repression of Food Intake After 1.0 Hours ([1]; I.P. 300 mg/kg) [%]	Percent Repression of Food Intake After 3.0 Hours ([1]; I.P. 300 mg/kg) [%]	Percent Repression of Food Intake After 6.0 Hours ([1]; I.P. 300 mg/kg) [%]	Percent Repression of Food Intake After 0.5 Hours ([1]; I.P. 100 mg/kg) [%]	Percent Repression of Food Intake After 1.0 Hours ([1]; I.P. 100 mg/kg) [%]	Percent Repression of Food Intake After 3.0 Hours ([1]; I.P. 100 mg/kg) [%]	Percent Repression of Food Intake After 6.0 Hours ([1]; I.P. 100 mg/kg) [%]	other results
6.5	CCC(C)(C)OC(=O)NC(C)(Cc1c[nH]c2ccccc12)C(=O)NCCc1ccccc1 (stereo not shown) [Example 6, [1-(1H-Indol-3-ylmethyl)-1-methyl-2-oxo-2-[(2-phenylethyl)amino]ethyl]-carbamic acid, 1,1-dimethylpropyl ester]	–	–	–	–	8	22	36	13	–
6.8	CCC(C)(C)OC(=O)NC(C)(Cc1c[nH]c2ccccc12)C(=O)NC(CO)Cc1ccccc1 (stereo not shown) [Example 7, [2-[[1-(Hydroxymethyl)-2-phenylethyl]-amino]-1-(1H-indol-3-ylmethyl)-1-methyl-2-oxoethyl]-carbamic acid, 1,1-dimethylpropyl ester]	64	45	23	11	–	–	–	–	–
